Source: patent US5770688A, “Method and composition for the treatment of mammalian HIV infection” (GSF-Forschungszentrum fur Umwelt und Gesundheit GmbH, priority 1989, dated 1998)

Experiments:
P24 = P24 production in melittin treated HIV infected cultures; format: cell-based
From the text: This means, in essence, that the effect of melittin (Seq. ID NO:1) on the virus is to attack the virus before it is released from an infected cell although it is possible that a reduction in virus numbers may be possible during and immediately after the addition of melittin to a cell culture or otherwise. […] At this point in time, melittin is absent from the culture. […] This observation excludes any effect in the experiments to be explained by a direct effect of melittin on "cell free" virus, that is, virus released into the supernatant.
These characteristics appear to be due to the specific structure of the melittin amphiphilic helix. […] In this regard, treatment was at cultivation start, and measurement of infectivity was seven days post treatment. As was discussed earlier, maximum virus concentration in cultures of this type is not achieved for five days after cultivation. As should be understood and the conclusions which the inventors have drawn from same is that if the reduced viral infectivity seven days post treatment were only due to direct effects of melittin on the virus, then in that event, the melittin or an active fragment would have to be present as late as five days post treatment. […] Moreover, and if the reduction and supernatant infectivity was partly due to reduced virus production as opposed to incorrect virus assembly or destruction of newly synthesized virion, then, in that event, this should be reflected by reduced amounts of viral proteins within the cells and/or in their supernatants of the melittin treated cultures. To determine whether this hypothesis is correct the inventors chose the P24 marker as a marker for viral protein production. […] However, following fourteen hours of incubation with melittin, there is a marked reduction of P24 within the cells as well as in the supernatant (down to 60%).

[1] = system: feline immunodeficiency virus (FIV); test: Example 3: FIV replication in naturally infected cats, quantitative FIV-PCR; format: in vivo
Description: To further investigate the effects of melittin (Seq. ID NO:1) on virus replication in retroviral infected cells or the inhibition of retroviral infected cell growth, a series of experiments were conducted utilizing cats which were naturally infected with the feline immunodeficiency virus (FIV). FIV is in its genomic and viral structure, in many respects, very similar to the human immunodeficiency virus (HIV). Therefore, it is widely regarded as similar to HIV, that is, it is a member of the Lentivirus subfamily, of the retrovirus family. Further, it has been determined that experimentally and naturally infected cats having FIV, display very similar disease characteristics such as immunedysfunction or other neurological disorders which can be taken as a relevant model for HIV infection in humans. This is discussed in greater detail in the article authored by Egberink et. al. "Suppression of feline immuno-deficiency virus infection in vivo by 9-(2-phosphonomethoxyethyl)adenine," Proc. Natl. Acad. Sci. 87, 3087-3091 (1990).
In the following series of experiments, two naturally FIV infected cats (M and G) were used. These particular cats were kept for more than one year under constant observation in the Clinic for Internal Medicine at the Veterinary School in Munich, Germany before the onset of melittin (Seq. ID NO:1) treatment. In each cat, FIV infection had been confirmed by detecting an antibody ELISA. In this regard, a test marketed under the tradename PetChek® and which is available from the same company in Portland, Maine was employed. As best seen in FIG. 53. The antibody titer against FIV in both cats was approximately 1:50. As a general matter, the overall physical condition of both cats was good during the observation period. Further and during the experiment, cat M developed shortly before melittin treatment a pneumonitis which was not treated in a conventional fashion. The individual body weights of each cat at the beginning of melittin treatment was 4 kilograms and 2.2 kilograms for cats M and G, respectively.
During the experiment it was determined that detectable blood serum levels of melittin (Seq. ID NO:1) of about 5 ng/ml could be detected following an injection of melittin equal to […] a few minutes after injection. […] In vitro data has shown that melittin, after this time interval, is found within the cells where it can be detected in tact for more than 48 hours. The LD50 (lethal dose where 50% of the animals perish) for melittin is not known for cats. […] The quantitative effect of melittin on FIV replication was determined quantitatively by utilizing FIV-PCR employing nested primers from the gag region. Quantification was based upon the determination of amplified product in identical samples which have been amplified after different cycle times. […]

Substance: Gly-Ile-Gly-Ala-Val-Leu-Lys-Val-Leu-Thr-Thr-Gly-Leu-Pro-Ala-Leu-Ile-Ser-Trp-Ile-Lys-Arg-Lys-Arg-Gln-Gln-Amide [melittin]
- cellular vs supernatant P24 reduction (P24): cellular P24 seems to be reduced sooner and more strongly than supernatant P24
- P24 within the cells as well as in the supernatant (P24; fourteen hours of incubation, down to, 840 min): 60%
- reduction of cellular and supernatant P24 (P24; three hours of incubation): only a slight reduction
- virus protein synthesis (P24 formation within the cell) (P24; totally infected (clone) cultures): virus protein synthesis is reduced
- reduction in virus load ([1]; FIV model, summary): 50%
- amplification of FIV specific sequences, in words ([1]; cat G, day 42 and following days): a reduced amplification could already be seen in the sample from day 42 and the following days
- amplification of FIV specific sequences, late samples, in words ([1]; cat M, days 56 and 116): reduced amplification
- reduction of the virus load ([1]; cat M, days 56 and 116): ≥ 50%
